Measurements reported in patent publication US8158670B2 (priority 1996, dated 2012).

Legend:
[1] = tested on: Vascular smooth muscle cells (BO54); assay: Scratch-migration assay; format: cell-based, baboon; parameters: key: −=no toxicity; +1=minimal; +2=mild; +3=moderate; +4=marked toxicity; conditions: Continuous Exposure, 1.0 μg/mL
Experimental: (§1) Vascular smooth muscle cells (BO54) were derived from explants of baboon aortic smooth muscle, as described in Example 10. The cells were grown in flat bottom, six well tissue culture plates, which hold about 5 ml of medium. The vascular smooth muscle cells were plated at 200,000 cells/well and placed at 37° C. in a humidified 5% CO2 incubator for 18 hours. The wells were then scratched with a sterile portion of a single edge razor blade that was held by clamp or pliers and was brought aseptically into contact with the bottom of the well at a 90° angle. The cells from a small area along the scratch were removed by a sterile cotton tipped applicator while the blade was in contact with the bottom of the well. After incubation, the presence of cells in the “scratched” area is indicative of cell migration across the scratch line.
Briefly, a stock solution of cytochalasin B (Sigma Chemical Co.) in dimethyl sulfoxide (DMSO) at 1 mg/ml was prepared. […]
In this Table, “M” indicates Migration Grade. wherein −=no migration; +1=minimal; +2=mild; +3=moderate; and +4=marked (maximum density; limit of cell contact inhibition) migration of vascular smooth muscle cells into the cleared area adjacent to the scratch. […] The migration results are expressed as “Grade in the Cleared Area of the Well/Grade in an Undisturbed Region of the Well.” The toxicity values represent a grade for all cells in each well.

[2] = tested on: Vascular smooth muscle cells (BO54); assay: Scratch-migration assay; format: cell-based, baboon; parameters: key to Migration Grade in the Cleared Area of the Well / Migration Grade in an Undisturbed Region of the Well: −=no migration; +1=minimal; +2=mild; +3=moderate; +4=marked (maximum density; limit of cell contact inhibition) migration
Experimental: as §1
Briefly, a stock solution of cytochalasin B (Sigma Chemical Co.) in dimethyl sulfoxide (DMSO) at 1 mg/ml was prepared. Test dilutions of cytochalasin B or control medium were added. Each experiment included two sets of plates:
A set: Test agent exposure for 1, 3, 6, 8 and 10 days only; and
B set: Test agent exposure for 1, 3, 6, 8 and 10 days, followed by a seven day recovery time with control medium.
Both sets of plates were fixed (10% formalin in PBS) and stained (0.02% crystal violet) at the end of the timed exposures. Test concentrations for cytochalasin B were 1, 0.1 and 0.01 μg/ml, and a negative medium control was included. Fresh medium and drug were supplied 3 times per week.
In this Table, “M” indicates Migration Grade. wherein −=no migration; +1=minimal; +2=mild; +3=moderate; and +4=marked (maximum density; limit of cell contact inhibition) migration of vascular smooth muscle cells into the cleared area adjacent to the scratch. In this Table, “T” denotes a morphological Toxicity Grade, wherein −=no toxicity; +1=minimal; +2=mild; +3=moderate; and +4=marked toxicity. The migration results are expressed as “Grade in the Cleared Area of the Well/Grade in an Undisturbed Region of the Well.” The toxicity values represent a grade for all cells in each well.

[3] = tested on: vascular smooth muscle cells of balloon-traumatized arteries; format: in vivo, pig; conditions: relative to a PBS control
[4] = tested on: Vascular smooth muscle (BO54) cells; format: cell-based, baboon; conditions: 5 minute exposure
[5] = Day 1, Continuous Exposure, 0.01 μg/mL
[6] = Day 1, Continuous Exposure, 0.1 μg/mL
[7] = Day 1, Continuous Exposure, 1.0 μg/mL
[8] = Day 1 exposure, 7-day Recovery Post Exposure, 0.01 μg/mL
[9] = Day 1 exposure, 7-day Recovery Post Exposure, 0.1 μg/mL
[10] = Day 1 exposure, 7-day Recovery Post Exposure, 1.0 μg/mL
[11] = Day 3, Continuous Exposure, 0.01 μg/mL
[12] = Day 3, Continuous Exposure, 0.1 μg/mL
[13] = Day 3, Continuous Exposure, 1.0 μg/mL
[14] = Day 3 exposure, 7-day Recovery Post Exposure, 0.01 μg/mL
[15] = Day 3 exposure, 7-day Recovery Post Exposure, 0.1 μg/mL
[16] = Day 3 exposure, 7-day Recovery Post Exposure, 1.0 μg/mL
[17] = Day 6, Continuous Exposure, 0.01 μg/mL
[18] = Day 6, Continuous Exposure, 0.1 μg/mL
[19] = Day 6, Continuous Exposure, 1.0 μg/mL
[20] = Day 6 exposure, 7-day Recovery Post Exposure, 0.01 μg/mL
[21] = Day 6 exposure, 7-day Recovery Post Exposure, 0.1 μg/mL
[22] = Day 6 exposure, 7-day Recovery Post Exposure, 1.0 μg/mL
[23] = Day 8, Continuous Exposure, 0.01 μg/mL
[24] = Day 8, Continuous Exposure, 0.1 μg/mL
[25] = Day 8, Continuous Exposure, 1.0 μg/mL
[26] = Day 8 exposure, 7-day Recovery Post Exposure, 0.01 μg/mL
[27] = Day 8 exposure, 7-day Recovery Post Exposure, 0.1 μg/mL
[28] = Day 8 exposure, 7-day Recovery Post Exposure, 1.0 μg/mL
[29] = Day 10, Continuous Exposure, 0.01 μg/mL
[30] = Day 10, Continuous Exposure, 0.1 μg/mL
[31] = Day 10, Continuous Exposure, 1.0 μg/mL
[32] = Day 10 exposure, 7-day Recovery Post Exposure, 0.01 μg/mL
[33] = Day 10 exposure, 7-day Recovery Post Exposure, 0.1 μg/mL
[34] = Day 10 exposure, 7-day Recovery Post Exposure, 1.0 μg/mL

Structure (SMILES): C=C1[C@@H](C)[C@H]2[C@H](Cc3ccccc3)NC(=O)[C@]23OC(=O)/C=C/[C@H](O)CCC[C@@H](C)C/C=C/[C@H]3[C@@H]1O [cytochalasin B]
- morphological Toxicity Grade ([1]; Day 8): +4
- morphological Toxicity Grade ([1]; Day 10): +4
- ability to migrate following removal of the therapeutic agent ([2]; 0.1 μg/ml, even after 10 days of continuous exposure): +3 to +4
- Migration Grade in an Undisturbed Region of the Well [2, 5]: +3
- Migration Grade in the Cleared Area of the Well [2, 5]: +1
- Migration Grade in an Undisturbed Region of the Well [2, 6]: +3
- Migration Grade in the Cleared Area of the Well [2, 6]: +1
- Migration Grade in an Undisturbed Region of the Well [2, 7]: +2
- Migration Grade in the Cleared Area of the Well [2, 7]: −
- Migration Grade in an Undisturbed Region of the Well [2, 8]: −4
- Migration Grade in the Cleared Area of the Well [2, 8]: +3
- Migration Grade in an Undisturbed Region of the Well [2, 9]: +4
- Migration Grade in the Cleared Area of the Well [2, 9]: +3
- Migration Grade in an Undisturbed Region of the Well [2, 10]: +3
- Migration Grade in the Cleared Area of the Well [2, 10]: +2
- Migration Grade in an Undisturbed Region of the Well [2, 11]: +4
- Migration Grade in the Cleared Area of the Well [2, 11]: +3
- Migration Grade in an Undisturbed Region of the Well [2, 12]: +4
- Migration Grade in the Cleared Area of the Well [2, 12]: +1
- Migration Grade in an Undisturbed Region of the Well [2, 13]: +2
- Migration Grade in the Cleared Area of the Well [2, 13]: −
- Migration Grade in an Undisturbed Region of the Well [2, 14]: −4
- Migration Grade in the Cleared Area of the Well [2, 14]: +3
- Migration Grade in an Undisturbed Region of the Well [2, 15]: +4
- Migration Grade in the Cleared Area of the Well [2, 15]: +3
- Migration Grade in an Undisturbed Region of the Well [2, 16]: +3
- Migration Grade in the Cleared Area of the Well [2, 16]: +2
- Migration Grade in an Undisturbed Region of the Well [2, 17]: +4
- Migration Grade in the Cleared Area of the Well [2, 17]: +3
- Migration Grade in an Undisturbed Region of the Well [2, 18]: +4
- Migration Grade in the Cleared Area of the Well [2, 18]: +2
- Migration Grade in an Undisturbed Region of the Well [2, 19]: +2
- Migration Grade in the Cleared Area of the Well [2, 19]: −
- Migration Grade in an Undisturbed Region of the Well [2, 20]: +4/+4
- Migration Grade in the Cleared Area of the Well [2, 20]: +4/+4
- Migration Grade in an Undisturbed Region of the Well [2, 21]: +4
- Migration Grade in the Cleared Area of the Well [2, 21]: +3
- Migration Grade in an Undisturbed Region of the Well [2, 22]: +3
- Migration Grade in the Cleared Area of the Well [2, 22]: +2
- Migration Grade in an Undisturbed Region of the Well [2, 23]: +4
- Migration Grade in the Cleared Area of the Well [2, 23]: +3
- Migration Grade in an Undisturbed Region of the Well [2, 24]: +4
- Migration Grade in the Cleared Area of the Well [2, 24]: +2
- Migration Grade in an Undisturbed Region of the Well [2, 25]: +2
- Migration Grade in the Cleared Area of the Well [2, 25]: −
- Migration Grade in an Undisturbed Region of the Well [2, 26]: +4/+4
- Migration Grade in the Cleared Area of the Well [2, 26]: +4/+4
- Migration Grade in an Undisturbed Region of the Well [2, 27]: +4
- Migration Grade in the Cleared Area of the Well [2, 27]: +3
- Migration Grade in an Undisturbed Region of the Well [2, 28]: +3
- Migration Grade in the Cleared Area of the Well [2, 28]: +2
- Migration Grade in an Undisturbed Region of the Well [2, 29]: +4
- Migration Grade in the Cleared Area of the Well [2, 29]: +3
- Migration Grade in an Undisturbed Region of the Well [2, 30]: +4
- Migration Grade in the Cleared Area of the Well [2, 30]: +2
- Migration Grade in an Undisturbed Region of the Well [2, 31]: +2
- Migration Grade in the Cleared Area of the Well [2, 31]: −
- Migration Grade in an Undisturbed Region of the Well [2, 32]: +4/+4
- Migration Grade in the Cleared Area of the Well [2, 32]: +4/+4
- Migration Grade in an Undisturbed Region of the Well [2, 33]: +4/+4
- Migration Grade in the Cleared Area of the Well [2, 33]: +4/+4
- Migration Grade in an Undisturbed Region of the Well [2, 34]: +3
- Migration Grade in the Cleared Area of the Well [2, 34]: +2
- migration into the cleared area adjacent to the scratch ([2]; dose of 0.1 μg/ml): +1 to +2
- time to resume migration after cells clear the agent ([2]; in vitro data): ≤ 24 h
- BRDU uptake (cell proliferation) [3]: inhibited BRDU uptake (i.e., cell proliferation) without killing the vascular smooth muscle cells
- minimum effective dose (MED) [4]: 10 µg/mL
